system: HCI-012 (organoid from a breast cancer xenograft); experiment: CTG-3D luminescence at 96 h relative to day-0 seeding control (ratio to day 0); higher = more growth / less cytotoxicity; PDxO 3D drug screen (set 2), 96 h, CTG-3D normalised to day-0 seeding control.; details: 12.5 pM; days in culture: 214

Row | SMILES | CTG-3D luminescence at 96 h
1 | CCOc1ccn(-c2ccc(F)cc2)c(=O)c1C(=O)Nc1ccc(Oc2ccnc(N)c2Cl)c(F)c1 [ASLAN002] | 1.99
2 | C[C@@H](Nc1cc(F)cc(F)c1)c1cc(C(=O)N(C)C)cc2c(=O)cc(N3CCOCC3)oc12 [AZD-8186] | 3.16
3 | COc1cccc2c1C(=O)c1c(O)c3c(c(O)c1C2=O)C[C@@](O)(C(=O)CO)C[C@@H]3O[C@H]1C[C@H](N)[C@@H](O)[C@H](C)O1 [epirubicin] | 2.15
4 | CC(=O)c1c(C)c2cnc(Nc3ccc(N4CCNCC4)cn3)nc2n(C2CCCC2)c1=O [palbociclib] | 2.51
5 | O=C(c1cc(Cc2n[nH]c(=O)c3ccccc23)ccc1F)N1CCN(C(=O)C2CC2)CC1 [olaparib] | 2.61

same assay, conditions: 12.5 pM; days in culture: 243

Row | SMILES | CTG-3D luminescence at 96 h
6 | CCOc1ccn(-c2ccc(F)cc2)c(=O)c1C(=O)Nc1ccc(Oc2ccnc(N)c2Cl)c(F)c1 [ASLAN002] | 1.95
7 | C[C@@H](Nc1cc(F)cc(F)c1)c1cc(C(=O)N(C)C)cc2c(=O)cc(N3CCOCC3)oc12 [AZD-8186] | 1.81
8 | COc1cccc2c1C(=O)c1c(O)c3c(c(O)c1C2=O)C[C@@](O)(C(=O)CO)C[C@@H]3O[C@H]1C[C@H](N)[C@@H](O)[C@H](C)O1 [epirubicin] | 1.9
9 | CC(=O)c1c(C)c2cnc(Nc3ccc(N4CCNCC4)cn3)nc2n(C2CCCC2)c1=O [palbociclib] | 2.23
10 | O=C(c1cc(Cc2n[nH]c(=O)c3ccccc23)ccc1F)N1CCN(C(=O)C2CC2)CC1 [olaparib] | 1.73

same assay, conditions: 12.5 pM; days in culture: 256

Row | SMILES | CTG-3D luminescence at 96 h
11 | CCOc1ccn(-c2ccc(F)cc2)c(=O)c1C(=O)Nc1ccc(Oc2ccnc(N)c2Cl)c(F)c1 [ASLAN002] | 1.93
12 | C[C@@H](Nc1cc(F)cc(F)c1)c1cc(C(=O)N(C)C)cc2c(=O)cc(N3CCOCC3)oc12 [AZD-8186] | 2.2
13 | COc1cccc2c1C(=O)c1c(O)c3c(c(O)c1C2=O)C[C@@](O)(C(=O)CO)C[C@@H]3O[C@H]1C[C@H](N)[C@@H](O)[C@H](C)O1 [epirubicin] | 1.75
14 | CC(=O)c1c(C)c2cnc(Nc3ccc(N4CCNCC4)cn3)nc2n(C2CCCC2)c1=O [palbociclib] | 1.88
15 | O=C(c1cc(Cc2n[nH]c(=O)c3ccccc23)ccc1F)N1CCN(C(=O)C2CC2)CC1 [olaparib] | 2.25

same assay, conditions: 12.5 pM; days in culture: 284

Row | SMILES | CTG-3D luminescence at 96 h
16 | CCOc1ccn(-c2ccc(F)cc2)c(=O)c1C(=O)Nc1ccc(Oc2ccnc(N)c2Cl)c(F)c1 [ASLAN002] | 1.86
17 | C[C@@H](Nc1cc(F)cc(F)c1)c1cc(C(=O)N(C)C)cc2c(=O)cc(N3CCOCC3)oc12 [AZD-8186] | 1.94
18 | COc1cccc2c1C(=O)c1c(O)c3c(c(O)c1C2=O)C[C@@](O)(C(=O)CO)C[C@@H]3O[C@H]1C[C@H](N)[C@@H](O)[C@H](C)O1 [epirubicin] | 1.9
19 | CC(=O)c1c(C)c2cnc(Nc3ccc(N4CCNCC4)cn3)nc2n(C2CCCC2)c1=O [palbociclib] | 1.65
20 | O=C(c1cc(Cc2n[nH]c(=O)c3ccccc23)ccc1F)N1CCN(C(=O)C2CC2)CC1 [olaparib] | 1.75

same assay, conditions: 0.00025 µM; days in culture: 214

Row | SMILES | CTG-3D luminescence at 96 h
21 | CCOc1ccn(-c2ccc(F)cc2)c(=O)c1C(=O)Nc1ccc(Oc2ccnc(N)c2Cl)c(F)c1 [ASLAN002] | 2.84
22 | C[C@@H](Nc1cc(F)cc(F)c1)c1cc(C(=O)N(C)C)cc2c(=O)cc(N3CCOCC3)oc12 [AZD-8186] | 3.58
23 | COc1cccc2c1C(=O)c1c(O)c3c(c(O)c1C2=O)C[C@@](O)(C(=O)CO)C[C@@H]3O[C@H]1C[C@H](N)[C@@H](O)[C@H](C)O1 [epirubicin] | 2.5
24 | CC(=O)c1c(C)c2cnc(Nc3ccc(N4CCNCC4)cn3)nc2n(C2CCCC2)c1=O [palbociclib] | 1.31
25 | O=C(c1cc(Cc2n[nH]c(=O)c3ccccc23)ccc1F)N1CCN(C(=O)C2CC2)CC1 [olaparib] | 3.14

same assay, conditions: 0.00025 µM; days in culture: 243

Row | SMILES | CTG-3D luminescence at 96 h
26 | CCOc1ccn(-c2ccc(F)cc2)c(=O)c1C(=O)Nc1ccc(Oc2ccnc(N)c2Cl)c(F)c1 [ASLAN002] | 2.84
27 | C[C@@H](Nc1cc(F)cc(F)c1)c1cc(C(=O)N(C)C)cc2c(=O)cc(N3CCOCC3)oc12 [AZD-8186] | 2.44
28 | COc1cccc2c1C(=O)c1c(O)c3c(c(O)c1C2=O)C[C@@](O)(C(=O)CO)C[C@@H]3O[C@H]1C[C@H](N)[C@@H](O)[C@H](C)O1 [epirubicin] | 2.59
29 | CC(=O)c1c(C)c2cnc(Nc3ccc(N4CCNCC4)cn3)nc2n(C2CCCC2)c1=O [palbociclib] | 2.46
30 | O=C(c1cc(Cc2n[nH]c(=O)c3ccccc23)ccc1F)N1CCN(C(=O)C2CC2)CC1 [olaparib] | 2.04

same assay, conditions: 0.00025 µM; days in culture: 256

Row | SMILES | CTG-3D luminescence at 96 h
31 | CCOc1ccn(-c2ccc(F)cc2)c(=O)c1C(=O)Nc1ccc(Oc2ccnc(N)c2Cl)c(F)c1 [ASLAN002] | 1.9
32 | C[C@@H](Nc1cc(F)cc(F)c1)c1cc(C(=O)N(C)C)cc2c(=O)cc(N3CCOCC3)oc12 [AZD-8186] | 2.24
33 | COc1cccc2c1C(=O)c1c(O)c3c(c(O)c1C2=O)C[C@@](O)(C(=O)CO)C[C@@H]3O[C@H]1C[C@H](N)[C@@H](O)[C@H](C)O1 [epirubicin] | 2.22
34 | CC(=O)c1c(C)c2cnc(Nc3ccc(N4CCNCC4)cn3)nc2n(C2CCCC2)c1=O [palbociclib] | 2.23
35 | O=C(c1cc(Cc2n[nH]c(=O)c3ccccc23)ccc1F)N1CCN(C(=O)C2CC2)CC1 [olaparib] | 1.86

same assay, conditions: 0.00025 µM; days in culture: 284

Row | SMILES | CTG-3D luminescence at 96 h
36 | CCOc1ccn(-c2ccc(F)cc2)c(=O)c1C(=O)Nc1ccc(Oc2ccnc(N)c2Cl)c(F)c1 [ASLAN002] | 2.58
37 | C[C@@H](Nc1cc(F)cc(F)c1)c1cc(C(=O)N(C)C)cc2c(=O)cc(N3CCOCC3)oc12 [AZD-8186] | 2.57
38 | COc1cccc2c1C(=O)c1c(O)c3c(c(O)c1C2=O)C[C@@](O)(C(=O)CO)C[C@@H]3O[C@H]1C[C@H](N)[C@@H](O)[C@H](C)O1 [epirubicin] | 2.3
39 | CC(=O)c1c(C)c2cnc(Nc3ccc(N4CCNCC4)cn3)nc2n(C2CCCC2)c1=O [palbociclib] | 2.5
40 | O=C(c1cc(Cc2n[nH]c(=O)c3ccccc23)ccc1F)N1CCN(C(=O)C2CC2)CC1 [olaparib] | 1.95

Source: the supplement of paper PMC8882468
